Values joined by “and” are separate entries in the source; they are usually repeats but may differ in a detail not shown here. Equal values may be shown once. Read-outs that look alike come from different tables or passages of the source. Peptide text beside a SMILES is read from it. * marks the point of attachment. C16 diacid = O=C(O)CCCCCCCCCCCCCCC(=O)*; Stearoyl = CCCCCCCCCCCCCCCCCC(=O)*
Key:
human GIP receptor [1] = target: T1, human GIP receptor (Homo sapiens, UniProt P48546); assay: 125I-human GIP competition binding assay, in the presence and absence of 2% HSA; conditions: for Binding fold (paired): fold decrease in affinity compared to GIP(3-30)NH2; for Fold change in affinity, IC50 (plus HSA)/IC50 (minus HSA): presence vs absence of 2% HSA, proxy for albumin binding; for Fold change HSA (2%)/Casein (0.1%): IC50 (plus HSA)/IC50 (minus HSA); for Binding (+/−HSA) Fold: fold change +HSA/−HSA;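 for all read-outs here: nonspecific binding taken as radioligand bound to untransfected cells, IC50 obtained from nonlinear regression fits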
T1 construct: host or cells: COS-7, transient transfection (calcium phosphate), cDNA in pCMV-Script
T1 sequence (P48546 22-466): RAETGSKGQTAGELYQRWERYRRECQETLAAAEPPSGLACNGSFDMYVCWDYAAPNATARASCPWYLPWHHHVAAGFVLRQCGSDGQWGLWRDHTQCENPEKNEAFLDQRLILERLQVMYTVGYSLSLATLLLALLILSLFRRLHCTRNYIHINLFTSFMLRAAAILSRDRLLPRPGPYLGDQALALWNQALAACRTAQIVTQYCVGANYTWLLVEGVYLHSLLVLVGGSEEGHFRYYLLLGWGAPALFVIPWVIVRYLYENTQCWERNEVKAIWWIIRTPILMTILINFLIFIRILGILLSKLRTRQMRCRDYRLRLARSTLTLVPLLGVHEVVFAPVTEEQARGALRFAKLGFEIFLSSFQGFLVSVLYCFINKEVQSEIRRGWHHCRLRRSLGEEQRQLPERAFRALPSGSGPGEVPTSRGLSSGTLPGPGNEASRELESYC

human GIP receptor [2] = target: T1, human GIP receptor; assay: cAMP accumulation assay, antagonism of a GIP-mediated cAMP response (50-80% of max); format: cell-based; conditions: for cAMP - antagonisme fold (paired): fold vs GIP(3-30)NH2, Table 3b; for Fold change of IC50 versus GIP(5-30)NH2: fold change of IC50 from GIP(5-30)NH2
Description: The day after, the cells were washed twice with Hepes buffered saline (HBS) buffer and incubated with HBS and 1 mM 3-isobutyl-1-methylxanthine (IBMX) for 30 min at 37° C. […] The HitHunter™ cAMP XS assay (DiscoveRx) was carried out according to the manufacturer's instructions.

human GIP receptor [3] = target: T1, human GIP receptor; assay: cAMP accumulation assay, agonism (ligand alone); format: cell-based; conditions: Table 1; for Emax: COS-7, intrinsic cAMP activity
[4] = 0.1% casein, no HSA, Table 3b, read-out: Binding logIC50 0.1% casein (converted)
[5] = Table 3b, initial data, read-out: Binding IC50
[6] = heterologous competition binding, transiently transfected COS-7 cells expressing the human GIP receptor, read-out: Binding
[7] = transiently transfected COS-7 cells, Table 1 and text, read-out: cAMP antagonism nM (IC50, antagonistic potency)
[8] = COS-7 cells, read-out: cAMP agonism nM (EC50)
[9] = given as log EC50 (negative sign), read-out: cAMP agonism EC50 (log) (converted)
[10] = binding in 0.1% casein (absence of HSA), log value, read-out: logIC50 0.1% casein (converted)
[11] = antagonism of GIP-mediated cAMP response, COS-7 cells, read-out: cAMP accumulation IC50

Row | SMILES | IC50 (human GIP receptor [1]; [4]) [nM] | IC50 (human GIP receptor [1]; [5]) [nM] | Binding fold (paired) (human GIP receptor [1]; Table 3b) [fold] | IC50 (human GIP receptor [1]; [6]) [nM] | Fold change in affinity, IC50 (plus HSA)/IC50 (minus HSA) (human GIP receptor [1]) [fold] | cAMP - antagonisme fold (paired) (human GIP receptor [2]) [fold] | IC50 (human GIP receptor [2]; [7]) [nM] | Emax (human GIP receptor [3]; COS-7 cells) [%] | EC50 (human GIP receptor [3]; [8]) [nM] | Fold change HSA (2%)/Casein (0.1%) (human GIP receptor [1]) | Ki (human GIP receptor [1]; absence of HSA) [nM] | Binding (+/−HSA) Fold (human GIP receptor [1]) | Fold change of IC50 versus GIP(5-30)NH2 (human GIP receptor [2]) | EC50 (human GIP receptor [3]; [9]) | IC50 (human GIP receptor [1]; [10]) [nM] | IC50 (human GIP receptor [2]; [11]) [nM] | further results
1 | CCCCCCCCCCCCCCCCCC(=O)NCCCC[C@H](NC(=O)[C@@H](NC(=O)[C@H](CCCCN)NC(=O)[C@H](CC(=O)O)NC(=O)[C@H](CCSC)NC(=O)[C@H](C)NC(=O)[C@@H](NC(=O)[C@H](CO)NC(=O)[C@H](Cc1ccc(O)cc1)NC(=O)[C@H](CC(=O)O)NC(=O)[C@H](CO)NC(=O)[C@@H](NC(=O)[C@H](Cc1ccccc1)NC(=O)[C@@H](NC(=O)CNC(=O)[C@@H](N)CCC(=O)O)[C@@H](C)O)[C@@H](C)CC)[C@@H](C)CC)[C@@H](C)CC)C(=O)N[C@@H](CCC(N)=O)C(=O)N[C@@H](CCC(N)=O)C(=O)N[C@@H](CC(=O)O)C(=O)N[C@@H](Cc1ccccc1)C(=O)N[C@H](C(=O)N[C@@H](CC(N)=O)C(=O)N[C@@H](Cc1c[nH]c2ccccc12)C(=O)N[C@@H](CC(C)C)C(=O)N[C@@H](CC(C)C)C(=O)N[C@@H](C)C(=O)N[C@@H](CCC(N)=O)C(=O)N[C@@H](CCCCN)C(N)=O)C(C)C [AT160, [hGIP(3-30)NH2[H18K]-C18/18]] (H-EGTFISDYSIAMDKIK(Stearoyl)QQDFVNWLLAQK-NH2; N-terminus assumed) | 48.8 | 48.8 | 6 | 49 | 3.6 | 0.7 | 38 | 13 | 962 | – | – | – | – | – | – | – | –
2 | CC[C@H](C)[C@H](NC(=O)[C@H](CO)NC(=O)[C@H](Cc1ccc(O)cc1)NC(=O)[C@H](CC(=O)O)NC(=O)[C@H](CO)NC(=O)[C@@H](NC(=O)[C@H](Cc1ccccc1)NC(=O)[C@@H](N)[C@@H](C)O)[C@@H](C)CC)C(=O)N[C@@H](C)C(=O)N[C@@H](CCSC)C(=O)N[C@@H](CCCCNC(=O)CCCCCCCCCCCCCCC(=O)O)C(=O)N[C@@H](CCCCN)C(=O)N[C@H](C(=O)N[C@@H](Cc1c[nH]cn1)C(=O)N[C@@H](CCC(N)=O)C(=O)N[C@@H](CCC(N)=O)C(=O)N[C@@H](CC(=O)O)C(=O)N[C@@H](Cc1ccccc1)C(=O)N[C@H](C(=O)N[C@@H](CC(N)=O)C(=O)N[C@@H](Cc1c[nH]c2ccccc12)C(=O)N[C@@H](CC(C)C)C(=O)N[C@@H](CC(C)C)C(=O)N[C@@H](C)C(=O)N[C@@H](CCC(N)=O)C(=O)N[C@@H](CCCCN)C(N)=O)C(C)C)[C@@H](C)CC [AT177, [hGIP(5-30)NH2[D15K]-C16diacid/15]] (H-TFISDYSIAMK(C16 diacid)KIHQQDFVNWLLAQK-NH2; N-terminus assumed) | – | – | – | 134 | – | – | 59 | 30 | – | 3.8 | 117 | 3.8 | 1.3 | 100 nM | – | – | –
3 | CC[C@H](C)[C@H](NC(=O)[C@H](CO)NC(=O)[C@H](Cc1ccc(O)cc1)NC(=O)[C@H](CC(=O)O)NC(=O)[C@H](CO)NC(=O)[C@@H](NC(=O)[C@H](Cc1ccccc1)NC(=O)[C@@H](N)[C@@H](C)O)[C@@H](C)CC)C(=O)N[C@@H](C)C(=O)N[C@@H](CCSC)C(=O)N[C@@H](CC(=O)O)C(=O)N[C@@H](CCCCN)C(=O)N[C@H](C(=O)N[C@@H](Cc1c[nH]cn1)C(=O)N[C@@H](CCC(N)=O)C(=O)N[C@@H](CCC(N)=O)C(=O)N[C@@H](CC(=O)O)C(=O)N[C@@H](Cc1ccccc1)C(=O)N[C@H](C(=O)N[C@@H](CC(N)=O)C(=O)N[C@@H](Cc1c[nH]c2ccccc12)C(=O)N[C@@H](CC(C)C)C(=O)N[C@@H](CC(C)C)C(=O)N[C@@H](CCCCNC(=O)CCCCCCCCCCCCCCC(=O)O)C(=O)N[C@@H](CCC(N)=O)C(=O)N[C@@H](CCCCN)C(N)=O)C(C)C)[C@@H](C)CC [AT188, [hGIP(5-30)NH2[A28K]-C16diacid/28]] (H-TFISDYSIAMDKIHQQDFVNWLLK(C16 diacid)QK-NH2; N-terminus assumed) | – | – | – | – | – | – | 152 | 10 | – | 0.0 | 144 | 3.2 | 6.8 | 100 nM and 158 nM | – | – | IC50 (human GIP receptor [1]; heterologous competition binding, transiently transfected COS-7 cells expressing the human GIP receptor, log value of the nM column, read-out: Binding log (converted)): 200 nM and 183 nM
4 | CC[C@H](C)[C@H](NC(=O)[C@H](CO)NC(=O)[C@H](Cc1ccc(O)cc1)NC(=O)[C@H](CC(=O)O)NC(=O)[C@H](CO)NC(=O)[C@@H](NC(=O)[C@H](Cc1ccccc1)NC(=O)[C@@H](NC(=O)CCCCCCCCCCCCCCC(=O)O)[C@@H](C)O)[C@@H](C)CC)C(=O)N[C@@H](C)C(=O)N[C@@H](CCSC)C(=O)N[C@@H](CC(=O)O)C(=O)N[C@@H](CCCCN)C(=O)N[C@H](C(=O)N[C@@H](Cc1c[nH]cn1)C(=O)N[C@@H](CCC(N)=O)C(=O)N[C@@H](CCC(N)=O)C(=O)N[C@@H](CC(=O)O)C(=O)N[C@@H](Cc1ccccc1)C(=O)N[C@H](C(=O)N[C@@H](CC(N)=O)C(=O)N[C@@H](Cc1c[nH]c2ccccc12)C(=O)N[C@@H](CC(C)C)C(=O)N[C@@H](CC(C)C)C(=O)N[C@@H](C)C(=O)N[C@@H](CCC(N)=O)C(=O)N[C@@H](CCCCN)C(N)=O)C(C)C)[C@@H](C)CC [AT137, [hGIP(5-30)NH2—C16diacid/5]] | – | – | – | 286 | – | – | 182 | 12 | 18 | 1.9 | – | 2.0 | 3.7 | – | 316 | 102 | Affinity compared to GIP(3-30)NH2 (in words) (human GIP receptor [1]): affinities in the same range as GIP(3-30)NH2; Ki (human GIP receptor [1]; presence of 2% HSA): 117 nM; Ability to antagonize the GIP-mediated cAMP response (in words) (human GIP receptor [2]): high potent antagonists
5 | CCCCCCCCCCCCCC(=O)NCCCC[C@H](NC(=O)[C@H](CC(=O)O)NC(=O)[C@H](CCSC)NC(=O)[C@H](C)NC(=O)[C@@H](NC(=O)[C@H](CO)NC(=O)[C@H](Cc1ccc(O)cc1)NC(=O)[C@H](CC(=O)O)NC(=O)[C@H](CO)NC(=O)[C@@H](NC(=O)[C@H](Cc1ccccc1)NC(=O)[C@@H](NC(=O)CNC(=O)[C@@H](N)CCC(=O)O)[C@@H](C)O)[C@@H](C)CC)[C@@H](C)CC)C(=O)N[C@H](C(=O)N[C@@H](Cc1c[nH]cn1)C(=O)N[C@@H](CCC(N)=O)C(=O)N[C@@H](CCC(N)=O)C(=O)N[C@@H](CC(=O)O)C(=O)N[C@@H](Cc1ccccc1)C(=O)N[C@H](C(=O)N[C@@H](CC(N)=O)C(=O)N[C@@H](Cc1c[nH]c2ccccc12)C(=O)N[C@@H](CC(C)C)C(=O)N[C@@H](CC(C)C)C(=O)N[C@@H](C)C(=O)N[C@@H](CCC(N)=O)C(=O)N[C@@H](CCCCN)C(N)=O)C(C)C)[C@@H](C)CC [AT111, [hGIP(3-30)NH2—C14/16]] | 407 | 261 | 31 | 261 | 5.1 | 3.3 | 22 | 0 | – | 5.1 | – | – | – | – | – | – | IC50 (human GIP receptor [1]; 2% HSA, Table 3b, read-out: Binding logIC50 2% HSA (converted)): 2090 nM; IC50 (human GIP receptor [1]; binding in presence of 2% HSA, read-out: logIC50 2% HSA (converted)): 2090 nM; IC50 (human GIP receptor [2]; given as log IC50 (negative sign), transiently transfected COS-7 cells, Table 1, read-out: cAMP antagonism log (converted)): 25.1 nM
6 | CC[C@H](C)[C@H](NC(=O)[C@H](CO)NC(=O)[C@H](Cc1ccc(O)cc1)NC(=O)[C@H](CCCCNC(=O)CCCCCCCCCCCCCCC(=O)O)NC(=O)[C@H](CO)NC(=O)[C@@H](NC(=O)[C@H](Cc1ccccc1)NC(=O)[C@@H](N)[C@@H](C)O)[C@@H](C)CC)C(=O)N[C@@H](C)C(=O)N[C@@H](CCSC)C(=O)N[C@@H](CC(=O)O)C(=O)N[C@@H](CCCCN)C(=O)N[C@H](C(=O)N[C@@H](Cc1c[nH]cn1)C(=O)N[C@@H](CCC(N)=O)C(=O)N[C@@H](CCC(N)=O)C(=O)N[C@@H](CC(=O)O)C(=O)N[C@@H](Cc1ccccc1)C(=O)N[C@H](C(=O)N[C@@H](CC(N)=O)C(=O)N[C@@H](Cc1c[nH]c2ccccc12)C(=O)N[C@@H](CC(C)C)C(=O)N[C@@H](CC(C)C)C(=O)N[C@@H](C)C(=O)N[C@@H](CCC(N)=O)C(=O)N[C@@H](CCCCN)C(N)=O)C(C)C)[C@@H](C)CC [AT171, [hGIP(5-30)NH2[D9K]-C16diacid/9]] (H-TFISK(C16 diacid)YSIAMDKIHQQDFVNWLLAQK-NH2; N-terminus assumed) | – | – | – | – | 8.3 | – | 35 | 0 | – | 8.3 | – | 6.3 | 1.1 | – | 79.4 | 31.6 | –

Source: patent US11572399B2, “Long-acting GIP peptide analogues” (University of Copenhagen, priority 2017, dated 2023)
